Assay results reported in patent US20260250318A1, “COMPOSITIONS AND METHODS FOR CROSSING THE BLOOD BRAIN BARRIER” (VOYAGER THERAPEUTICS, INC., priority 2022, published 2026).

What follows are sequences tested on brains, heart, liver, muscle, and DRG of the NHPs (assay: Maturation of TTM-001 and TTM-002 capsids, NGS enrichment in NHP tissues). Settings: NGS fold-enrichment; DRG; NHP; relative to AAV9.
Format: in vivo
Excerpt: This Example describes maturation of the AAV9 capsid variants, TTM-001 (SEQ ID NO: 981 (amino acid) and 983 (DNA), comprising SEQ ID NO: 941 (encoded by SEQ ID NO: 942)) and TTM-002 (SEQ ID NO: 982 (amino acid) and 984 (DNA), comprising SEQ ID NO: […] (encoded by SEQ ID NO: 944)) in NHPs to further enhance their transduction and biodistribution in the central nervous system as well as other tissues, and evolve the AAV capsid variants to provide further cross-species compatibility. Two approaches were used to mature the TTM-001 and TTM-002 capsid sequences in order to randomize and mutate within and around the peptide insert comprised within loop IV of the capsid variant. […] In the first maturation approach, sets of three contiguous amino acids were randomized across the mutagenesis region in the TTM-001 and TTM-002 sequences, which spanned from position 450 to position 466, numbered according to SEQ ID NO: 981 and 982. In the second maturation approach, mutagenic primers were used to introduce point mutations at a low frequency, scattered across the mutagenesis region in the TTM-001 and TTM-002 sequences ranging from position 449 to position 466, numbered according to SEQ ID NO: 981 and 982. AAV capsid variants arising from each maturation approach for TTM-001 and TTM-002 were pooled together, for subsequent testing and characterization in NHPs.
The library of pooled matured AAV capsid variants generated using the first maturation approach and the second maturation approach for the TTM-001 and TTM-002 AAV capsid variants were injected into two NHPs. […] Following RNA recovery and RT-PCR amplification, a systematic NGS enrichment analysis was performed to calculate the fold enrichment ratio relative to an AAV9 control, and the peptides comprised within the variants were identified.
Following the RNA recovery and NGS analysis from the second maturation approach, approximately 680,000 capsid variants were identified. The 680,000 matured capsid variants were then filtered based on samples with a raw virus count greater than 10 and a coefficient of variance (CV) of less than 1, which was calculated for each peptide across the brain samples taken from the two NHPs. […] Using this filtering criteria, this led to approximately 64,000 matured capsid variants.

Question: For KTINGSGSPHSYYSNQQT, which “Fold Enrichment relative to AAV9, DRG (NHP)” value is on record?
Answer: 0.000 fold

Same assay, conditions: NGS fold-enrichment; brain; NHP; relative to AAV9

Question: KTINGSGSPHSYYSNQQT was tested. Which “Fold Enrichment relative to AAV9, Brain (NHP)” value did it give?
Answer: 0.000 fold

Same assay, conditions: NGS fold-enrichment; heart; NHP; relative to AAV9

Question: Which “Fold Enrichment relative to AAV9, Heart (NHP)” value does the source give for KTINGSGSPHSYYSNQQT here?
Answer: 0.000 fold

Same assay, conditions: NGS fold-enrichment; liver DNA; NHP; relative to AAV9

Question: How did the “Fold Enrichment relative to AAV9, Liver DNA (NHP)” value turn out when KTINGSGSPHSYYSNQQT was run?
Answer: 2.856 fold

Same assay, conditions: NGS fold-enrichment; liver RNA; NHP; relative to AAV9

Question: Which “Fold Enrichment relative to AAV9, Liver RNA (NHP)” value does the source give for KTINGSGSPHSYYSNQQT here?
Answer: 10.680 fold

Same assay, conditions: NGS fold-enrichment; muscle; NHP; relative to AAV9

Question: For KTINGSGSPHSYYSNQQT, which “Fold Enrichment relative to AAV9, Muscle (NHP)” value is on record?
Answer: 0.000 fold

Same assay, conditions: NHP DRG; NGS; relative to AAV9 control

Question: With KTINGSGSPHSRCPNQQT as the sequence, how does the “Fold Enrichment relative to AAV9, DRG (NHP)” value read?
Answer: 0.000 fold

Question: For KTINGSGSPHWVAQNQQT, which “Fold Enrichment relative to AAV9, DRG (NHP)” value is on record?
Answer: 0.000 fold

Question: For KTINFTRSPHSKAQNQQT, which “Fold Enrichment relative to AAV9, DRG (NHP)” value is on record?
Answer: 0.000 fold

Question: For KTINGSGSPHLCTQNQQT, which “Fold Enrichment relative to AAV9, DRG (NHP)” value is on record?
Answer: 0.000 fold

Question: How did the “Fold Enrichment relative to AAV9, DRG (NHP)” value turn out when KTINGSGSPHSKAPRRQT was run?
Answer: 0.000 fold

Question: Which “Fold Enrichment relative to AAV9, DRG (NHP)” value does the source give for KTINGSGSPHSKAFYRQT here?
Answer: 0.000 fold

Question: KTINGLVSPHRKAQNQQT was tested. Which “Fold Enrichment relative to AAV9, DRG (NHP)” value did it give?
Answer: 0.000 fold

Question: KTINGSGSPHVYYQNQQT was tested. Which “Fold Enrichment relative to AAV9, DRG (NHP)” value did it give?
Answer: 0.000 fold

Question: For KTINGSGSPHSKLCTQQT, which “Fold Enrichment relative to AAV9, DRG (NHP)” value is on record?
Answer: 0.000 fold

Same assay, conditions: NHP brain; NGS; relative to AAV9 control

Question: KTINGSGSPHSRCPNQQT was tested. Which “Fold Enrichment relative to AAV9, Brain (NHP)” value did it give?
Answer: 0.000 fold

Question: Which “Fold Enrichment relative to AAV9, Brain (NHP)” value does the source give for KTINGSGSPHWVAQNQQT here?
Answer: 0.000 fold

Question: How did the “Fold Enrichment relative to AAV9, Brain (NHP)” value turn out when KTINFTRSPHSKAQNQQT was run?
Answer: 0.000 fold

Question: With KTINGSGSPHLCTQNQQT as the sequence, how does the “Fold Enrichment relative to AAV9, Brain (NHP)” value read?
Answer: 0.000 fold

Question: Which “Fold Enrichment relative to AAV9, Brain (NHP)” value does the source give for KTINGSGSPHSKAPRRQT here?
Answer: 0.000 fold

Question: How did the “Fold Enrichment relative to AAV9, Brain (NHP)” value turn out when KTINGSGSPHSKAFYRQT was run?
Answer: 0.000 fold

Question: With KTINGLVSPHRKAQNQQT as the sequence, how does the “Fold Enrichment relative to AAV9, Brain (NHP)” value read?
Answer: 0.000 fold

Question: For KTINGSGSPHVYYQNQQT, which “Fold Enrichment relative to AAV9, Brain (NHP)” value is on record?
Answer: 0.944 fold

Question: Which “Fold Enrichment relative to AAV9, Brain (NHP)” value does the source give for KTINGSGSPHSKLCTQQT here?
Answer: 0.000 fold

Same assay, conditions: NHP heart; NGS; relative to AAV9 control

Question: For KTINGSGSPHSRCPNQQT, which “Fold Enrichment relative to AAV9, Heart (NHP)” value is on record?
Answer: 0.000 fold

Question: For KTINGSGSPHWVAQNQQT, which “Fold Enrichment relative to AAV9, Heart (NHP)” value is on record?
Answer: 0.000 fold

Question: Which “Fold Enrichment relative to AAV9, Heart (NHP)” value does the source give for KTINFTRSPHSKAQNQQT here?
Answer: 0.000 fold

Question: For KTINGSGSPHLCTQNQQT, which “Fold Enrichment relative to AAV9, Heart (NHP)” value is on record?
Answer: 0.000 fold

Question: With KTINGSGSPHSKAPRRQT as the sequence, how does the “Fold Enrichment relative to AAV9, Heart (NHP)” value read?
Answer: 0.000 fold

Question: How did the “Fold Enrichment relative to AAV9, Heart (NHP)” value turn out when KTINGSGSPHSKAFYRQT was run?
Answer: 0.000 fold

Question: KTINGLVSPHRKAQNQQT was tested. Which “Fold Enrichment relative to AAV9, Heart (NHP)” value did it give?
Answer: 0.000 fold

Question: Which “Fold Enrichment relative to AAV9, Heart (NHP)” value does the source give for KTINGSGSPHVYYQNQQT here?
Answer: 0.246 fold

Question: Which “Fold Enrichment relative to AAV9, Heart (NHP)” value does the source give for KTINGSGSPHSKLCTQQT here?
Answer: 0.000 fold

Same assay, conditions: NHP liver DNA; NGS; relative to AAV9 control

Question: KTINGSGSPHSRCPNQQT was tested. Which “Fold Enrichment relative to AAV9, Liver DNA (NHP)” value did it give?
Answer: 4.890 fold

Question: KTINGSGSPHWVAQNQQT was tested. Which “Fold Enrichment relative to AAV9, Liver DNA (NHP)” value did it give?
Answer: 3.634 fold

Question: KTINFTRSPHSKAQNQQT was tested. Which “Fold Enrichment relative to AAV9, Liver DNA (NHP)” value did it give?
Answer: 3.751 fold

Question: For KTINGSGSPHLCTQNQQT, which “Fold Enrichment relative to AAV9, Liver DNA (NHP)” value is on record?
Answer: 2.489 fold

Question: With KTINGSGSPHSKAPRRQT as the sequence, how does the “Fold Enrichment relative to AAV9, Liver DNA (NHP)” value read?
Answer: 3.940 fold

Question: KTINGSGSPHSKAFYRQT was tested. Which “Fold Enrichment relative to AAV9, Liver DNA (NHP)” value did it give?
Answer: 3.577 fold

Question: For KTINGLVSPHRKAQNQQT, which “Fold Enrichment relative to AAV9, Liver DNA (NHP)” value is on record?
Answer: 2.739 fold

Question: KTINGSGSPHVYYQNQQT was tested. Which “Fold Enrichment relative to AAV9, Liver DNA (NHP)” value did it give?
Answer: 2.173 fold

Question: For KTINGSGSPHSKLCTQQT, which “Fold Enrichment relative to AAV9, Liver DNA (NHP)” value is on record?
Answer: 1.269 fold

Same assay, conditions: NHP liver RNA; NGS; TTM-001 and TTM-002 matured AAV capsid variants; relative to AAV9 control

Question: Which “Fold Enrichment relative to AAV9, Liver RNA (NHP)” value does the source give for KTINGSGSPHSRCPNQQT here?
Answer: 39.529 fold

Question: For KTINGSGSPHWVAQNQQT, which “Fold Enrichment relative to AAV9, Liver RNA (NHP)” value is on record?
Answer: 11.703 fold

Question: Which “Fold Enrichment relative to AAV9, Liver RNA (NHP)” value does the source give for KTINFTRSPHSKAQNQQT here?
Answer: 14.908 fold

Question: How did the “Fold Enrichment relative to AAV9, Liver RNA (NHP)” value turn out when KTINGSGSPHLCTQNQQT was run?
Answer: 11.176 fold

Question: For KTINGSGSPHSKAPRRQT, which “Fold Enrichment relative to AAV9, Liver RNA (NHP)” value is on record?
Answer: 21.645 fold

Question: Which “Fold Enrichment relative to AAV9, Liver RNA (NHP)” value does the source give for KTINGSGSPHSKAFYRQT here?
Answer: 77.541 fold

Question: How did the “Fold Enrichment relative to AAV9, Liver RNA (NHP)” value turn out when KTINGLVSPHRKAQNQQT was run?
Answer: 23.417 fold

Question: Which “Fold Enrichment relative to AAV9, Liver RNA (NHP)” value does the source give for KTINGSGSPHVYYQNQQT here?
Answer: 53.294 fold

Question: Which “Fold Enrichment relative to AAV9, Liver RNA (NHP)” value does the source give for KTINGSGSPHSKLCTQQT here?
Answer: 18.674 fold

Same assay, conditions: NHP muscle; NGS; relative to AAV9 control

Question: How did the “Fold Enrichment relative to AAV9, Muscle (NHP)” value turn out when KTINGSGSPHSRCPNQQT was run?
Answer: 0.000 fold

Question: How did the “Fold Enrichment relative to AAV9, Muscle (NHP)” value turn out when KTINGSGSPHWVAQNQQT was run?
Answer: 0.000 fold

Question: How did the “Fold Enrichment relative to AAV9, Muscle (NHP)” value turn out when KTINFTRSPHSKAQNQQT was run?
Answer: 0.000 fold

Question: KTINGSGSPHLCTQNQQT was tested. Which “Fold Enrichment relative to AAV9, Muscle (NHP)” value did it give?
Answer: 0.000 fold

Question: How did the “Fold Enrichment relative to AAV9, Muscle (NHP)” value turn out when KTINGSGSPHSKAPRRQT was run?
Answer: 0.000 fold

Question: KTINGSGSPHSKAFYRQT was tested. Which “Fold Enrichment relative to AAV9, Muscle (NHP)” value did it give?
Answer: 0.000 fold

Question: KTINGLVSPHRKAQNQQT was tested. Which “Fold Enrichment relative to AAV9, Muscle (NHP)” value did it give?
Answer: 0.000 fold

Question: Which “Fold Enrichment relative to AAV9, Muscle (NHP)” value does the source give for KTINGSGSPHVYYQNQQT here?
Answer: 5.268 fold

Question: With KTINGSGSPHSKLCTQQT as the sequence, how does the “Fold Enrichment relative to AAV9, Muscle (NHP)” value read?
Answer: 0.000 fold
